Measured values reported in patent US10265302B2, “Compound useful for the treatment of nonsense-mutation-mediated diseases and pharmaceutical composition comprising said compound” (UNIVERSITE DE LILLE, priority 2010, dated 2019).

Legend:
[1] = system: P53 protein in Calu-6 cells; test: P53 and P21 protein in Calu-6 cells by Western blot; format: cell-based
Procedure: Moreover, G07 enables the synthesis of a truncated P53 protein and a full-length P53 protein in Calu-6 cells. G07 is thus different from the molecules disclosed in WO 2008/101935. Regarding the molecules disclosed in the above-mentioned document, only the truncated protein has been detected. Protein extracts of Calu-6 cells incubated or not with G07 were loaded on an electrophoresis gel and then transferred on a nitrocellulose membrane in order to detect P53 protein after incubation with an anti-P53 antibody (an anti-P53 antibody is an antibody directed against the amino terminal part of P53 (Santa Cruz)).
When P53 protein is synthesized, P53 activates P21 expression. […] Thus, P53 protein synthesized thanks to G07 induces P21 expression as WT P53 protein does. Consequently, the Applicants have thus confirmed that G07 enables the synthesis of a functional full-length P53 protein.

[2] = system: MOR mRNA (MOR gene with NMD-activating nonsense-mutation); test: In vivo NMD inhibition in KIM mice (MOR mRNA in brain); parameters: species or system mouse; settings: 1Q and 2Q (0.2 and 2 mg/kg) injected in DMSO, 24 hours after injection
Procedure: In KIM mice, MOR gene harbors a NMD-activating nonsense-mutation. MOR gene is expressed in nervous central system. Solutions containing 0.2, 2 or 20 mg/kg of G07 (1Q, 2Q or 3Q respectively) dissolved in DMSO were injected into KIM mice. A control group consists of animals treated with pure DMSO. Animals were then euthanized 6, 24 or 32 hours after injection. RNAs extracted from brain homogenates were purified using TriReagent (MRC) and then analyzed as described with reference to FIG. 2. The difference between the experiments described with reference to FIG. 2 is that in the present case the mRNAs analyzed are the mRNA coding for MOR gene and the mRNA coding for the GAPDH gene used as a control to quantify measured MOR mRNA. The first 3 wells from the left correspond to a half dilution of a sample coming from a wild-type mouse brain. These 3 wells were used to check the PCR conditions which have to be quantitatively useful. […] The same technique as described with reference to FIG. 2 was used except the fact that RNA comes from KIM mice brains. Some of these KIM mice were injected with G07.

CFTR in 6-CFSMEo- cells = test: Iodide efflux in 6-CFSMEo- cells (SPQ fluorescence); format: cell-based; settings: 6-CFSMEo- cells, 0.2, 1, 5 and 25 μM; forskolin 20 μM and IBMX 200 μM
Procedure: 6-CFSMEo− cells harbor a PTC in place of the glutamine 2 codon of the CFTR gene.
6-CFSMEo^− cells were seeded in 96-well plates and loaded overnight with 10 mM of the halide-sensitive fluorophore dye 6-methoxy-N-(3-sulfopropyl)-quinolinium (SPQ, Invitrogen). Cells were washed twice with iodide buffer (135 mM NaI, 2.4 mM K2HPO4, 0.6 mM KH2PO4, 1 mM MgSO4, 1 mM CaSO4, 10 mM dextrose and 10 mM Hepes, pH 7.3) and then incubated in iodide buffer for 30 min. After basal fluorescence was measured for 2 min, the iodide buffer was replaced with nitrate buffer (with 135 mM NaNO3 instead of NaI) containing 20 μM of forskolin and 200 μM of IBMX, and fluorescence was further measured for 10 minutes. The fluorescence intensities were measured every 15 seconds using the Tristar LB 941 microplate reader (Berthold) equipped with a 340 nm excitation filter and a 450 nm emission filter. […] G07 concentrations used were 0.2 μM, 1 μM, 5 μM and 25 μM, respectively. The increase in iodide efflux is shown as mean±SEM from at least four independent assays. It refers to the fluorescence at the reading time; F0 refers to the average fluorescence before addition of the above-mentioned nitrate buffer containing 20 μM of forskolin and 200 μM of IBMX.

[3] = system: CFTR mRNA (PTC at position 1282) in IB3 cells; test: NMD inhibition in IB3 cells (CFTR mRNA by RT-PCR); format: cell-based; settings: increasing concentrations, 20 hours
Procedure: IB3 cells harbor a […] in position 1282 in place of the tryptophan codon of the CFTR gene.
IB3 cells (ATCC) were incubated in DMSO solutions containing pure DMSO (as a control) or increasing G07 concentrations, respectively, during 20 hours.
RNAs obtained after incubation were purified and a RT-PCR was performed to measure the amount of CFTR mRNA (containing a PTC) and the amount of GADPH mRNA (used as a control).

[4] = system: PTC-containing dystrophin gene in DMD cells; test: Dystrophin protein in DMD cells by Western blot; format: cell-based
Procedure: As regards the results of FIG. 11 b, DMD cells were incubated with increasing amounts of […] molecule or as a control with DMSO. Protein extracts from these cells were loaded on 10% SDS-PAGE and transferred on nitrocellulose membrane. Nitrocellulose membrane was then exposed to primary antibody (either anti-dystrophin antibody raised against the amino-part of dystrophin protein (Santa-Cruz), or anti-tubulin antibody in order to specify the loading protein amount of each lane.

[5] = system: NMD (Firefly luciferase mRNA tethered with MS2-UPF fusion protein); test: NMD inhibition using Firefly luciferase in HeLa cells; format: cell-based; settings: 10 μmol/l of G07, versus control wells
From the text: The presence of one of the following UPF proteins (UPF1, UPF2, UPF3 (also called UPF3a) or UPF3X (also called UPF3b)) on the 3′UTR part of an mRNA, activates NMD on this particular mRNA. When an UPF protein is located downstream from a normal stop codon, said normal stop codon is recognized as a PTC. Consequently, the mRNA comprising the UPF protein will be degraded through NMD.
HeLa cell-line expressing Firefly luciferase mRNA were used. Firefly luciferase mRNA harbors MS2 binding sites in the 3′UTR. The above-mentioned cells further contain a fusion protein which consists in said MS2 protein and one of the four UPF proteins. This fusion protein enables UPF positioning downstream from the normal stop codon (i.e. on the 3′UTR part of this mRNA). Accordingly, the normal stop codon is recognized as a PTC. Consequently, NMD is activated and degrades Firefly luciferase mRNA.
Luciferase activity in the above-mentioned cells is thus directly linked to NMD activity.
HeLa cells were cultured in DMEM (Gibco) supplemented with 10% FBS and containing 10 μmol/l of G07.

[6] = after oral administration; cited from earlier work
[7] = system: PTC-containing dystrophin gene in DMD cells; test: Dystrophin mRNA in DMD cells by RT-PCR; format: cell-based
Procedure: As regards the results of FIG. 11 a, DMD cells were incubated with increasing amounts of […] molecule or as a control with DMSO. RNAs were purified using RNazol reagent (MRC) and reverse transcribed using Superscript. II (Life technologies) and random hexamer. PCR using radiolabelled CTP was performed in order to amplify either dystrophin or GAPDH cDNA. Amplification products were loaded on 5% polyacrylamide gel. The gel was then dried and exposed on phosphoscreen in order to allow quantification of each amplification species by Personal Molecular Imager (Biorad).

[8] = system: P53 mRNA (UGA PTC at codon 196) in Calu-6 cells; test: P53 mRNA level in Calu-6 cells by RT-PCR; format: cell-based
From the text: RNAs of said Calu-6 cells were reverse transcribed and amplified through PCR (RT-PCR) in the presence of a radioactive labeling nucleotide in order to measure P53 mRNA and GAPDH mRNA levels (GAPDH being used as a loading control). […] Amplified reverse transcribed mRNAs were loaded on an acrylamide gel and submitted to electrophoresis. Acrylamide gel was then dried on Whatman paper and applied on a phosphoscreen (Kodak). A Personal Molecular Imager (Bic-Rad) was used to quantify amplified radiolabelled species. Calu-6 cells were incubated with growing concentrations of G07 in DMSO during about twenty hours. This was carried out in order to confirm NMD inhibition activity of G07. After incubation, RNAs were purified by using TriReagent (MRC) and then reverse-transcribed into cDNA which can be PCR amplified in presence of a radiolabelled nucleotide.
Thus, an increasing quantity of P53 mRNA results from stabilization thereof. […] GAPDH (Glyceraldehyde 3-phosphate deshydrogenase) mRNA was amplified in order to normalize the measurement of P53 mRNA between two lanes.

NMD = settings: cited from earlier work

Row | SMILES | P21 protein (functionality of P53) ([1]; 25 and 125 μM) | P53 protein synthesis (Western blot) ([1]; about 20 hours incubation) | MOR mRNA level in brain [2] | iodide efflux (CFTR in 6-CFSMEo- cells) | ratio amount of CFTR mRNA/amount of GAPDH mRNA [3] | concentration of maximum efficacy, dystrophin protein [4] [µM] | dystrophin protein (Western-blot) ([4]; increasing amounts) | luciferase activity (NMD inhibition) [5] | tissue distribution [6] | concentration of maximum efficacy, dystrophin mRNA [7] [µM] | dystrophin mRNA (RT-PCR) ([7]; increasing amounts) | NMD inhibition / P53 mRNA stabilization ([8]; 25 μM) | quantity of P53 mRNA (normalised to GAPDH mRNA) ([8]; growing concentrations in DMSO, about twenty hours) | NMD inhibiting activity (NMD)
1 | CC(C)c1ccc2oc3nc(N)c(C(=O)O)cc3c(=O)c2c1 [G07, 2-amino-7-isopropyl-5-oxo-5H-chromeno[2,3-b]pyridine-3-carboxylic acid] | presence of P21 | full-length and truncated P53 proteins are synthesized | stabilization of MOR mRNA | dose-response effect | increased stabilization of CTFR mRNA | 5 | synthesis of dystrophin protein | higher than in control wells | preferably distributed in liver, kidneys and intestine | 5 | stabilization of dystrophin mRNA | inhibits NMD and enables a stabilization of P53 mRNA | increased quantity of P53 mRNA | –
2 | O=C(O)c1cccc(-c2noc(-c3ccccc3F)n2)c1 [PTC124, 3-[5-(2-fluorophenyl)-1,2,4-oxadiazol-3-yl]benzoïc acid] | – | – | – | – | – | – | – | – | – | – | – | – | – | no NMD inhibiting activity
